Several values for one entry are separate records, joined by “and”; a condition that tells them apart may be missing. Equal entries are not always repeated. Activity calls are given as the source filed them.
Key:
Troponin, cardiac muscle = Troponin, cardiac muscle (Homo sapiens, UniProt P19429+P45379+P63316); experiment: Fluorescence-based biochemical high throughput dose response assay for activators of the calcium sensitivity of cardiac Regulated Thin Filaments (RTF). [Related pubchem assays (depositor defined):AID493008, AID493018, AID504382, AID504383]; format: protein-complex assay
X-box-binding protein 1 = target: T1, X-box-binding protein 1 (Homo sapiens, UniProt P17861); format: functional, Cricetulus griseus;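 also: confirmatory dose-response counter-screen serving a CHOP assay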
T1 sequence (P17861 whole entry): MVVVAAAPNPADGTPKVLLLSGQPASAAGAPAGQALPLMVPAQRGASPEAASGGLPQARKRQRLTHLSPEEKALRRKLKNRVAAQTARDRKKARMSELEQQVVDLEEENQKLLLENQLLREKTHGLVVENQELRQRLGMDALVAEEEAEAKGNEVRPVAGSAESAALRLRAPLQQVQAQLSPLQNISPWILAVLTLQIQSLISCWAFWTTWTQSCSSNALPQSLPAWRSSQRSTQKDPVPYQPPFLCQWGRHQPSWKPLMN

Melanocortin receptor 4 = Melanocortin receptor 4 (Homo sapiens, UniProt P32245); format: functional, cell-based;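 also: Cell-based assay with luminescence read-out, confirmatory dose-response testing for agonist activity of biased ligands at MC4R; human U2OS cells with tagged receptor and beta-arrestin; potency of agonists that increase receptor coupling to beta-arrestin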
Coagulation factor XII = target: T2, Coagulation factor XII (Homo sapiens, UniProt P00748); format: functional;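 also: activated factor XIIa alpha cleaving a fluorogenic AMC peptide substrate; inhibitor potency from loss of enzyme activity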
T2 sequence (P00748 whole entry): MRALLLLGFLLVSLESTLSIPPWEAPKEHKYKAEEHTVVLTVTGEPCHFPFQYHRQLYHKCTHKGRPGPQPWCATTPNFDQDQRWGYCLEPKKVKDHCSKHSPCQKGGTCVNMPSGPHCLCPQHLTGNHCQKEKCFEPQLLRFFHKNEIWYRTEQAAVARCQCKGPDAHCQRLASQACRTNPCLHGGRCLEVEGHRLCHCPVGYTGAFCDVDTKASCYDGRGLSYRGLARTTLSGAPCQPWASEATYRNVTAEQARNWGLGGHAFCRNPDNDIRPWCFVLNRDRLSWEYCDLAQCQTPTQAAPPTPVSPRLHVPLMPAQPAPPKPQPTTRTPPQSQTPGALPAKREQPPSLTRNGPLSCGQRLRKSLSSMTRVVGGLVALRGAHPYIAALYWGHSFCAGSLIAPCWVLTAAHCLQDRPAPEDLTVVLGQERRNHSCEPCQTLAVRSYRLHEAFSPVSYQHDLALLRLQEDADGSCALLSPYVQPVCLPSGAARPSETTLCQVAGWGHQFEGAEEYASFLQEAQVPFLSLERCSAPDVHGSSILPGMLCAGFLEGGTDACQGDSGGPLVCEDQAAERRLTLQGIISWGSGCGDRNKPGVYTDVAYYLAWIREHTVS

[1] = target: DNA dC->dU-editing enzyme APOBEC-3G (Homo sapiens, UniProt Q9HC16); experiment: Dose Response confirmation of small molecule APOBEC3G DNA Deaminase Inhibitors via a fluorescence-based single-stranded DNA deaminase assay. [Related pubchem assays (depositor defined):AID493012, AID493028]; format: functional
Leucine aminopeptidase = target: T3, Leucine aminopeptidase (Plasmodium falciparum 3D7, UniProt Q8IL11); experiment: P. falciparum M17LAP inhibitors, primary screen, biochemical, fluorogenic H-Leu-NHMec substrate, 1536-well (AID 1619); format: functional
T3 sequence (Q8IL11 whole entry): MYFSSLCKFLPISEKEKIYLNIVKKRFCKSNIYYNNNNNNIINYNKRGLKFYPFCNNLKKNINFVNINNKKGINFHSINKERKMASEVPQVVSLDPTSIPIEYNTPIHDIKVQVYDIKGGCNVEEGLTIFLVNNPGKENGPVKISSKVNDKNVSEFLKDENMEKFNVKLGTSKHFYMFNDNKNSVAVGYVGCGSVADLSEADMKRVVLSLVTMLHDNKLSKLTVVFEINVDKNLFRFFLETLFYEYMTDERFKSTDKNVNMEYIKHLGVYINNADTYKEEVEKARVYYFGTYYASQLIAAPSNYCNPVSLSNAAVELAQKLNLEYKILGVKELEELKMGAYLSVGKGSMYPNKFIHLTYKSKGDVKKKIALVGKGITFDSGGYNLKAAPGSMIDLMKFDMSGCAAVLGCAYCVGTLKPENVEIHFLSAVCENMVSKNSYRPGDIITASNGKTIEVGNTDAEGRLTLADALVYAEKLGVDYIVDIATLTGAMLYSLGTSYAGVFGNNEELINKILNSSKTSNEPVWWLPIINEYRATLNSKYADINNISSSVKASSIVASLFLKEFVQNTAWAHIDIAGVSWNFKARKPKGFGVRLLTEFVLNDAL

H9c2 = experiment: cells; format: functional, cell-based; conditions: Rattus norvegicus, H9c2, Myocardium;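 also: confirmatory concentration-response retest of ultra-high-throughput screening hits for modulation of myocardial damage; cell death induced by hydrogen peroxide oxidative stress; compound pretreatment for 60 min then peroxide exposure for 2 h; potency is for protecting the cells against peroxide damage rather than for killing them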
Cytochrome P450 1A2 = target: T4, Cytochrome P450 1A2 (Homo sapiens, UniProt P05177);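 also: PubChem cytochrome P450 panel assay, CYP1A2 panel member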
T4 sequence (P05177 whole entry): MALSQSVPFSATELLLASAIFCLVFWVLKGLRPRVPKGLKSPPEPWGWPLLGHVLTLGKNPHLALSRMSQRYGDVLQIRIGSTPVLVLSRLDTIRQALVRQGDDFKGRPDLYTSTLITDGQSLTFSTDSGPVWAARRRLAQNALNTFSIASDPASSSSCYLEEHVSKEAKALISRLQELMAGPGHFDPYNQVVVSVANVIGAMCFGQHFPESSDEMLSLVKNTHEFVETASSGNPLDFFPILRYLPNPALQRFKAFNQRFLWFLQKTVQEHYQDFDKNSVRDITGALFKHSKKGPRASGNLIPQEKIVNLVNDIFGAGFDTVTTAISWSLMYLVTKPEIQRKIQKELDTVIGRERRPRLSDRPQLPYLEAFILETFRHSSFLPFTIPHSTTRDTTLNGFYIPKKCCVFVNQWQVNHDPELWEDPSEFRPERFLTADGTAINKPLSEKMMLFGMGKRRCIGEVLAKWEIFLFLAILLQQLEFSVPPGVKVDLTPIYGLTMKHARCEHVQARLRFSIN

[2] = target: T5, Short transient receptor potential channel 4 (Mus musculus, UniProt Q9QUQ5); experiment: mouse TRPC4 channel activators, dose response, cell-based, HEK293 TRPC4/mu-opioid, Fluo-4 calcium (AID 434937); format: functional
T5 sequence (Q9QUQ5 whole entry): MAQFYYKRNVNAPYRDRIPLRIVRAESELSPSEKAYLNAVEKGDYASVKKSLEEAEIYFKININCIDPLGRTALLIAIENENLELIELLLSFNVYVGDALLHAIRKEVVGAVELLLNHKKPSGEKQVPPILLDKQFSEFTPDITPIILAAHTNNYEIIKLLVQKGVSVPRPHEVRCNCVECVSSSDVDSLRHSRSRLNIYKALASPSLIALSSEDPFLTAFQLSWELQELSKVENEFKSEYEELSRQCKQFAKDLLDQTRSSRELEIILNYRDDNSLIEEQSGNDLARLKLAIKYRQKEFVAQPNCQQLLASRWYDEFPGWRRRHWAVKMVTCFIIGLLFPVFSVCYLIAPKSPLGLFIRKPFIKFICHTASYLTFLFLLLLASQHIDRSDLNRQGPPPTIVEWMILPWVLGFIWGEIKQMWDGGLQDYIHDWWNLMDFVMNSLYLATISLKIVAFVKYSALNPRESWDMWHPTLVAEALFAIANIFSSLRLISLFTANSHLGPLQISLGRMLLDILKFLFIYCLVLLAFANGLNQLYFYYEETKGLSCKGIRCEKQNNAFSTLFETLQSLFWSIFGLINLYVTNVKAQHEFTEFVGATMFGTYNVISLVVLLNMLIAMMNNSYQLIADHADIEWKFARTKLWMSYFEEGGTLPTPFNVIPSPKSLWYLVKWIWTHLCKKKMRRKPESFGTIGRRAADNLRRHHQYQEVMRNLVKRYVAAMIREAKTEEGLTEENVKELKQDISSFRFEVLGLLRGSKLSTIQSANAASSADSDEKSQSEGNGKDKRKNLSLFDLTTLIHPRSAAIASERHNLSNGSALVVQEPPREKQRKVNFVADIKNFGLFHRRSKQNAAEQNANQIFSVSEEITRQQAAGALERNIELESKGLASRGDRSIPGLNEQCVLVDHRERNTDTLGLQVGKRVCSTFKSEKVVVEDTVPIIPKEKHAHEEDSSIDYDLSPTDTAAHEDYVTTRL

Cytochrome P450 2C19 = Cytochrome P450 2C19 (Homo sapiens, UniProt P33261); experiment: Cytochrome panel assay with activity outcomes. Panel member name: p450-cyp2c19 Compounds with AC50 equal or less than 10 uM are considered active; format: functional; conditions: read-out: AC50
Protein RecA = target: T6, Protein RecA (Mycobacterium tuberculosis, UniProt P9WHJ3); experiment: Fluorescence Cell-Free Homogeneous Dose Retest to Identify Inhibitors of RecA-Intein Splicing Activity. [Related pubchem assays (depositor defined):AID2097, AID2223, AID489010, AID492950]; format: functional
T6 sequence (P9WHJ3 whole entry): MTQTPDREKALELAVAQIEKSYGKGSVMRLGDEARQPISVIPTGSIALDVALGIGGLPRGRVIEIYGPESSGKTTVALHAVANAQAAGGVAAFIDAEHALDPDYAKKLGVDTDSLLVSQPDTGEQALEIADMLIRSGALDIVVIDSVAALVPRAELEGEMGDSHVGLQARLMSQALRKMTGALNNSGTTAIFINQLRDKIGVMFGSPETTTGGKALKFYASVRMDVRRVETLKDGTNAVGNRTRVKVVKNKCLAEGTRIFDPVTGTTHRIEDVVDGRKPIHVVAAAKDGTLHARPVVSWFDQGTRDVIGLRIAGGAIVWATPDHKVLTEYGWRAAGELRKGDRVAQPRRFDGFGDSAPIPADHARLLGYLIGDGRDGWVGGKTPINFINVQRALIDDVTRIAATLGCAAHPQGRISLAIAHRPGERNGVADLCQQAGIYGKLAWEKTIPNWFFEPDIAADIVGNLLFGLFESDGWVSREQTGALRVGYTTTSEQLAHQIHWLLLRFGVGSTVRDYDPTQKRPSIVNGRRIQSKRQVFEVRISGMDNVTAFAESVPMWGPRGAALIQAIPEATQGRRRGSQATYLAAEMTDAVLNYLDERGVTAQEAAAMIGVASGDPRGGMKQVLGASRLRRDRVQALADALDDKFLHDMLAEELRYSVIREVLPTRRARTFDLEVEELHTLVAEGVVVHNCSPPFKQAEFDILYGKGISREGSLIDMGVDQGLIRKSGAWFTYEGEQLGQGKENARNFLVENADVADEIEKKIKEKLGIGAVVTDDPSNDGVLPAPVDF

[3] = target: T7, Replicative DNA helicase DnaB (Mycobacterium tuberculosis, UniProt P9WMR3); experiment: DnaB intein splicing inhibitors, dose response, biochemical, cell-free fluorescence (AID 449749); format: functional
T7 sequence (P9WMR3 whole entry): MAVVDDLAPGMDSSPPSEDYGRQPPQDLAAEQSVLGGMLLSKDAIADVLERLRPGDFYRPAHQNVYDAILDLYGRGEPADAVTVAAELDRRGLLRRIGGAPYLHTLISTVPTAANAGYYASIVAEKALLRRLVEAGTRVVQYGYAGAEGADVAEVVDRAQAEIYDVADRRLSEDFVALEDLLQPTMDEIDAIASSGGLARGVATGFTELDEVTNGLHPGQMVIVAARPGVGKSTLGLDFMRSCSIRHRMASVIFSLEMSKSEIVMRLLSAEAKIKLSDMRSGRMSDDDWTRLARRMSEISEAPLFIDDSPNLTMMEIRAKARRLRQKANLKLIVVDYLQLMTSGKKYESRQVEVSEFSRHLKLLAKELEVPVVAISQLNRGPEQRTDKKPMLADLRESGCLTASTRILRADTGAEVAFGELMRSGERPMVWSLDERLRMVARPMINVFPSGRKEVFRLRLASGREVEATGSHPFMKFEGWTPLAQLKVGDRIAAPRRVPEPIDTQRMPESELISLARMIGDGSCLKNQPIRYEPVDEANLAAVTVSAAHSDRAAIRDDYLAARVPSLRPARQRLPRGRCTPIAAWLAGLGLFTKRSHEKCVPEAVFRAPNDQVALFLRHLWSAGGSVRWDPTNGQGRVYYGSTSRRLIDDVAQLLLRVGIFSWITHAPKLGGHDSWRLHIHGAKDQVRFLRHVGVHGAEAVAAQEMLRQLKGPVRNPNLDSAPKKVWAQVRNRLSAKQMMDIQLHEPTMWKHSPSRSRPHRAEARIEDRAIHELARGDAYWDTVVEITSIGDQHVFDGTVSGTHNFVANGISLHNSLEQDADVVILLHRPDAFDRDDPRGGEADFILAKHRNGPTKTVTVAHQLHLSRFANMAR

[4] = microbe, parasite or virus in culture; format: functional; conditions: Mycobacterium tuberculosis

With `Cc1ccc(S(=O)(=O)NCCCCCC(=O)Nc2ccccc2C)cc1` the EC50 (Troponin, cardiac muscle) was > 71.5 µM (inactive).
In the case of `Cc1ccc2nc(Nc3ccc4[nH]c(O)nc4c3)c(-n3nc(C)cc3C)nc2c1`, the “Absolute IC50 (XBP1)” value (X-box-binding protein 1) is reported as 10 µM and the EC50 (Melanocortin receptor 4) is reported as > 89.2 µM (inactive).
With `Cc1nc2ccccc2n1C1CCN(Cc2nnnn2CCc2ccccc2)CC1` the IC50 (Coagulation factor XII) was > 50 µM (inactive).
For `CCOc1ccccc1N1C(=O)CC(Sc2n[nH]c(-c3ccccc3)n2)C1=O` (configuration not stated), the IC50 [1] was 9.92 µM (active) and the IC50 (Leucine aminopeptidase) was 8.97 µM (active).
For `COc1cccc(CC(NC(C)=O)C(=O)NC2CCN(c3nc(C)cc(C)c3C#N)CC2)c1OC` (configuration not stated), the EC50 (Troponin, cardiac muscle) was > 71.5 µM (inactive).
In the case of `COC(=O)C(C)Sc1nnc(Cc2cc(O)nc(O)n2)n1-c1ccc(Cl)cc1` (configuration not stated), the IC50 (Coagulation factor XII) is reported as > 50 µM (inactive).
In the case of `COc1ccc(/C=N/NC(=O)c2cc(OC)c(OC)c(OC)c2)cc1CN1CCc2cc(OC)c(OC)cc2C1C` (configuration not stated), the IC50 (H9c2) is reported as 19.5 µM (active) and the EC50 (Troponin, cardiac muscle) is reported as > 71.5 µM (inactive).
With `O=C1NCN(c2ccccc2)C12CCN(CCCC(c1ccc(F)cc1)c1ccc(F)cc1)CC2` the AC50 (Cytochrome P450 1A2) was 12.6 µM (inconclusive), the EC50 [2] was 6.68 µM (active) and the “Absolute IC50 (XBP1)” value (X-box-binding protein 1) was 10 µM. For the same molecule, the AC50 (Cytochrome P450 2C19) was 7.94 µM (inconclusive) and 15.8 µM (inconclusive), the EC50 (Protein RecA) was 20.2 µM (active) and the AC50 [3] was 9.69 µM (active). The CC50 [4] was 32.9 µM (active).

— ChEMBL document CHEMBL1201862, “PubChem BioAssay data set” (2004)
